{"source": "the NIST ThermoML archive (doi:10.1016/j.jct.2017.12.015)", "key": {"[1]": {"test": "refractive index (Na D-line) (dimensionless)", "details": "298 K; 101.33 kPa; Liquid; Standard Abbe refractometry"}, "[2]": {"details": "Liquid, Ebulliometric method (Recirculating still)"}}, "note": "Numbers after ± are expanded uncertainties.", "data": [{"smiles": "CC(=O)O", "note": "[acetic acid]", "values": [{"measurement": "refractive index", "setting": "[1]", "value": "1.37203 ± 0.001"}]}, {"smiles": "CC(C)=O", "note": "[acetone]", "values": [{"measurement": "refractive index", "setting": "[1]", "value": "1.3555 ± 0.001"}]}, {"smiles": "O=Cc1ccco1", "note": "[2-furaldehyde]", "values": [{"measurement": "refractive index", "setting": "[1]", "value": "1.52364 ± 0.001"}]}, {"smiles": "COC1CCCC1", "note": "[methoxycyclopentane]", "values": [{"measurement": "vapor or sublimation pressure", "setting": "[2]; 340.92 K", "value": "29.4 ± 0.2", "unit": "kPa"}, {"measurement": "vapor or sublimation pressure", "setting": "[2]; 345.38 K", "value": "34.6 ± 0.2", "unit": "kPa"}, {"measurement": "vapor or sublimation pressure", "setting": "[2]; 350.4 K", "value": "41.4 ± 0.3", "unit": "kPa"}, {"measurement": "vapor or sublimation pressure", "setting": "[2]; 356.3 K", "value": "50.7 ± 0.3", "unit": "kPa"}, {"measurement": "vapor or sublimation pressure", "setting": "[2]; 363.57 K", "value": "64.4 ± 0.3", "unit": "kPa"}, {"measurement": "vapor or sublimation pressure", "setting": "[2]; 366.69 K", "value": "71.1 ± 0.3", "unit": "kPa"}, {"measurement": "vapor or sublimation pressure", "setting": "[2]; 369.78 K", "value": "78.3 ± 0.3", "unit": "kPa"}, {"measurement": "vapor or sublimation pressure", "setting": "[2]; 374.39 K", "value": "90 ± 0.3", "unit": "kPa"}, {"measurement": "vapor or sublimation pressure", "setting": "[2]; 377.89 K", "value": "99.8 ± 0.3", "unit": "kPa"}, {"measurement": "refractive index", "setting": "[1]", "value": "1.41833 ± 0.001"}]}, {"smiles": "O", "note": "[water]", "values": [{"measurement": "refractive index", "setting": "[1]", "value": "1.3325 ± 0.001"}]}, {"smiles": "CC1CCCO1", "note": "(configuration not stated) [2-methyltetrahydrofuran]", "values": [{"measurement": "vapor or sublimation pressure", "setting": "[2]; 323.22 K", "value": "36.4 ± 0.3", "unit": "kPa"}, {"measurement": "vapor or sublimation pressure", "setting": "[2]; 327.67 K", "value": "43 ± 0.3", "unit": "kPa"}, {"measurement": "vapor or sublimation pressure", "setting": "[2]; 337.97 K", "value": "62.1 ± 0.3", "unit": "kPa"}, {"measurement": "vapor or sublimation pressure", "setting": "[2]; 341.54 K", "value": "70.1 ± 0.3", "unit": "kPa"}, {"measurement": "vapor or sublimation pressure", "setting": "[2]; 347.21 K", "value": "84.4 ± 0.3", "unit": "kPa"}, {"measurement": "vapor or sublimation pressure", "setting": "[2]; 350.53 K", "value": "93.8 ± 0.4", "unit": "kPa"}, {"measurement": "vapor or sublimation pressure", "setting": "[2]; 352.84 K", "value": "100.8 ± 0.4", "unit": "kPa"}, {"measurement": "refractive index", "setting": "[1]", "value": "1.40299 ± 0.001"}]}]}
